Patent publication US12162893B2 (Erasca, Inc., priority 2020, dated 2024)

Target: T1, mutant G12C K-RAS (Homo sapiens, UniProt P01116, G12C)
T1 construct: made in house; host or cells: E. coli BL21
Assay: covalent adduct formation (CAF) with mutant G12C K-RAS
Type: binding
Conditions: Table 6; 10 μM, 1 h
Procedure: Embodiments disclosed herein are further illustrated by the following examples in Tables 1-4 and the Examples hereinbelow. The Tables indicate the compound number, structure, the observed mass spectral molecular weight peak, and covalent adduct formation (CAF) with a mutant G12C K-RAS after 60 minutes at a concentration of 10 micromolar.

Structure (SMILES) | % CAF @ 10 μM,1 h [%]
C=CC(=O)N1C[C@H](C)N(c2nc(=O)n3c4c(c(-c5ccc(F)cc5F)c(Cl)cc24)O[C@@H](CCCO)C3)C[C@H]1C [Example 247, (2S)-7-((2S,5R)-4-acryloyl-2,5-dimethylpiperazin-1-yl)-9-chloro-10-(2,4-difluorophenyl)-2-(3-hydroxypropyl)-2,3-dihydro-5H-[1,4]oxazino[2,3,4-ij]quinazolin-5-one] | 42.2
C=CC(=O)N1C[C@H](C)N(c2nc(=O)n3c4c(c(-c5ccc(F)cc5F)c(Cl)cc24)O[C@H](CCCO)C3)C[C@H]1C [Example 249, (2R)-7-((2S,5R)-4-acryloyl-2,5-dimethylpiperazin-1-yl)-9-chloro-10-(2,4-difluorophenyl)-2-(3-hydroxypropyl)-2,3-dihydro-5H-[1,4]oxazino[2,3,4-ij]quinazolin-5-one] | 51.2
C=CC(=O)N1C[C@H](C)N(c2nc(=O)n3c4c(c(-c5ccc(F)cc5F)c(Cl)cc24)OC[C@@H]3CCCO)C[C@H]1C [Example 250, (3S)-7-((2S,5R)-4-acryloyl-2,5-dimethylpiperazin-1-yl)-9-chloro-10-(2,4-difluorophenyl)-3-(3-hydroxypropyl)-2,3-dihydro-5H-[1,4]oxazino[2,3,4-ij]quinazolin-5-one] | 70.1
C=CC(=O)N1C[C@H](C)N(c2nc(=O)n3c4c(c(-c5ccc(F)cc5F)c(Cl)cc24)OC[C@@H]3CCCN2[C@@H]3CC[C@H]2COC3)C[C@H]1C [Example 252, (3S)-3-(3-((1R,5S)-3-oxa-8-azabicyclo[3.2.1]octan-8-yl)propyl)-7-((2S,5R)-4-acryloyl-2,5-dimethylpiperazin-1-yl)-9-chloro-10-(2,4-difluorophenyl)-2H-[1,4]oxazino[2,3,4-ij]quinazolin-5(3H)-one] | 60.5
C=CC(=O)N1C[C@H](C)N(c2nc(=O)n3c4c(c(-c5ccc(F)cc5F)c(Cl)cc24)OC[C@H]3CCCN2C3CCC2COC3)C[C@H]1C [Example 254, (3R)-3-(3-(3-oxa-8-azabicyclo[3.2.1]octan-8-yl)propyl)-7-((2S,5R)-4-acryloyl-2,5-dimethylpiperazin-1-yl)-9-chloro-10-(2,4-difluorophenyl)-2,3-dihydro-5H-[1,4]oxazino[2,3,4-ij]quinazolin-5-one] | 99.5

More lines, now with the values ahead:

% CAF @ 10 μM,1 h [%] | Structure (SMILES)
85.3 | C=CC(=O)N1C[C@H](C)N(c2nc(=O)n3c4c(c(-c5ccc(F)cc5F)c(Cl)cc24)OC[C@H]3CCCO)C[C@H]1C [Example 251, (3R)-7-((2S,5R)-4-acryloyl-2,5-dimethylpiperazin-1-yl)-9-chloro-10-(2,4-difluorophenyl)-3-(3-hydroxypropyl)-2,3-dihydro-5H-[1,4]oxazino[2,3,4-ij]quinazolin-5-one]
87.6 | C=CC(=O)N1C[C@H](C)N(c2nc(=O)n3c4c(c(-c5ccc(F)cc5F)c(Cl)cc24)OC[C@H]3CCCN2CCS(=O)(=O)CC2)C[C@H]1C [Example 253, (3R)-7-((2S,5R)-4-acryloyl-2,5-dimethylpiperazin-1-yl)-9-chloro-10-(2,4-difluorophenyl)-3-(3-(1,1-dioxidothiomorpholino)propyl)-2,3-dihydro-5H-[1,4]oxazino[2,3,4-ij]quinazolin-5-one]
86.8 | C=CC(=O)N1C[C@H](C)N(c2nc(=O)n3c4c(c(-c5ccc(F)cc5F)c(Cl)cc24)OC[C@@H]3CCCN2CCS(=O)(=O)CC2)C[C@H]1C [Example 255, (3S)-7-((2S,5R)-4-acryloyl-2,5-dimethylpiperazin-1-yl)-9-chloro-10-(2,4-difluorophenyl)-3-(3-(1,1-dioxidothiomorpholino)propyl)-2,3-dihydro-5H-[1,4]oxazino[2,3,4-ij]quinazolin-5-one]
80.1 | C=CC(=O)N1C[C@H](C)N(c2nc(=O)n3c4c(c(-c5ccc(F)cc5F)c(Cl)cc24)OC[C@H]3CN2CCN(C)CC2)C[C@H]1C [Example 256, (3R)-7-((2S,5R)-4-acryloyl-2,5-dimethylpiperazin-1-yl)-9-chloro-10-(2,4-difluorophenyl)-3-((4-methylpiperazin-1-yl)methyl)-2H-[1,4]oxazino[2,3,4-ij]quinazolin-5(3H)-one]
